Marks after values point to notes of the source that are not given here.
Tests used:
[1] = test system: adjuvant-induced arthritis; test: Adjuvant-induced arthritis (AA/AIA) model in female Lewis rats (paw volume, clinical score, histopathology); assay type: in vivo, rat; set-up: Pathological score (Mean ± SEM), Inflammatory cell infiltration / Pathological score (Mean ± SEM), Pannus growth / Pathological score (Mean ± SEM), Cartilage injury / Pathological score (Mean ± SEM), Bone resorption / Pathological score (Mean ± SEM), Total: scale not given here; conditions: for Paw volume (mL), Mean: 5 mg/kg BID
Source text: Adjuvant-Induced Arthritis AA Model: […] All rats except the normal group were immunized with complete Freund's adjuvant (CFA) subcutaneously at the left hind paw to induce arthritis at day 0. […] The treatments were given orally for 3 consecutive weeks. The body weight, paw volume and clinical score were monitored every other day after day 13 throughout the course of the study. At the terminal point, right hind paws were collected for histopathology analysis with H.E. staining.

[2] = test system: DoHH-2 lymphoma xenograft; test: Inhibition of tumor growth in vivo, DoHH-2 lymphoma xenograft SCID mouse model; conditions: BID, 21 days
Method: (§1) Inhibition Study of Tumor Growth In Vivo:
(§2) SCID mice or nude mice (weighing about 18 g at the beginning of the experiment) were randomly divided into groups by the software in order to achieve close average weights between groups and control the bias within the allowable range. The mice were injected BTK cell lines (TMD-8, WSU-DLCL2 and DoHH-2) for tumor formation. Inhibitors were administered orally once or twice a day, a total of 14 days, 21 days or 28 days. Body weights and tumor volume were recorded.
(§3) Xenograft Tumor Models Inoculated with TMD-8, or DoHH2, or WSU-DLCL2 Tumor Cell Lines:
(§4) TMD-8 is a sensitive human diffuse large B-cell lymphoma cell line, and DoHH2 is a more difficult to treat human follicular lymphoma cell line, while WSU-DLCL2 is a multi-drug resistant (MDR) human non-Hodgkin's lymphoma cell line. Drug combination therapies provide better efficacies in all three tumor models than single targeted agent alone.
(§5) The TMD-8, DoHH2, WSU-DLCL2 tumor cells were maintained in vitro as a suspension culture in RPMI-1640 medium supplemented with 10% heat inactivated fetal calf serum at 37° C. in an atmosphere of 5% CO2 in air. The tumor cells were routinely subcultured twice weekly. The cells growing in an exponential growth phase were harvested and counted for tumor inoculation. Each mouse was inoculated subcutaneously at the right flank with the tumor cells (10×10^6) in 0.2 ml of PBS with Matrigel (1:1) for tumor development. The treatments were started after the average tumor size reached approximately 100-200 mm^3. Each group consisted of 6-10 tumor-bearing mice. The testing article (vehicle, compound or combination) was orally administrated to the mice according to the predetermined doses for 14-days or 21-days. Animal body weight and tumor volume were measured every 2- or 3-days throughout the treatment.

[3] = test system: WSU-DLCL2 xenograft; test: Inhibition of tumor growth in vivo, resistant WSU-DLCL2 SCID mouse model; conditions: for Antitumor effect (%): WSU-DLCL2, Oral, BID
Method: as §1
as §2, with “Inhibitors were administered orally once or twice a day, a total of 14 days, 21 days or 28 days.” left out
as §3
TMD-8 is a sensitive human diffuse large B-cell lymphoma cell line, and DoHH2 is a more difficult to treat human follicular lymphoma cell line, while WSU-DLCL2 is a multi-drug resistant (MDR) human non-Hodgkin's lymphoma cell line.
as §5, with “The testing article (vehicle, compound or combination) was orally administrated to the mice according to the predetermined doses for 14-days or 21-days.” left out

[4] = 28-day toxicity/toxicokinetic (TK) study in rats
Source text: Toxicity and toxicokinetic (TK) studies of the compounds can be performed by well known methods.

[5] = test system: TMD-8 lymphoma xenograft; test: Inhibition of tumor growth in vivo, TMD-8 lymphoma xenograft SCID mouse model; conditions: TMD-8, Oral, BID
Method: as §1, §2, §3, §4, §5

[6] = 28-day toxicity/toxicokinetic (TK) study in dogs; assay type: in vivo, dog
[7] = test system: collagen induced arthritis; test: Collagen-induced arthritis (CIA) model in male DBA/1 mice (clinical score, histopathology); assay type: in vivo, mouse; set-up: Clinical Score (Mean) / Pathological score (Mean ± SEM), Inflammatory cell infiltration / Pathological score (Mean ± SEM), Pannus growth / Pathological score (Mean ± SEM), Cartilage injury / Pathological score (Mean ± SEM), Bone resorption / Pathological score (Mean ± SEM), Total: scale not given here
Method: Collagen-Induced Arthritis (CIA) Model: The combination of Compounds 3 and 12 was evaluated in collagen induced arthritis (CIA) mouse model in Male DBA/1 mice. The animals were divided into 8 groups, including a normal, a vehicle, […] treatment groups: […] On the same day, immunized mice were randomly divided into 7 groups: […] The treatments were given orally for 2 consecutive weeks. Body weight and clinical score were monitored through the study (recorded three times a week started after second immunization). At the end of the study, animals were euthanized and both hind paws were collected for histopathology analysis.

[8] = CIA study, Left hind paw, 3 alone, 1.5 mg/kg QD
[9] = CIA study, Right hind paw, 3 alone, 1.5 mg/kg QD

C=CC(=O)N1CC[C@@H](n2nc(-c3ccc(Oc4c(F)c(F)cc(F)c4F)cc3F)c3c(N)ncnc32)C1 [Compound 3, 1-((R)-3-(4-amino-3-(2-fluoro-4-(2,3,5,6-tetrafluorophenoxy)phenyl)-1H-pyrazolo[3,4-d]pyrimidin-1-yl)pyrrolidin-1-yl)prop-2-en-1-one]
Paw volume (mL), Mean ([1]; Day 0): 1.04 mL | Paw volume (mL), Mean ([1]; Day 17): 1.87 ns mL | Paw volume (mL), Mean ([1]; Day 26): 2.29** mL | Paw volume (mL), Mean ([1]; Day 28): 2.12*** mL | Paw volume (mL), Mean ([1]; Day 31): 2.12*** mL | Paw volume (mL), Mean ([1]; Day 33): 2.09*** mL | effect on paw volume ([1]; AA rats model, FIG. 13): absent | Pathological score (Mean ± SEM), Bone resorption ([1]; AA study, 3 alone, 5 mg/kg): 3.0 ± 0.45 | Pathological score (Mean ± SEM), Cartilage injury ([1]; AA study, 3 alone, 5 mg/kg): 2.8 ± 0.51 | Pathological score (Mean ± SEM), Inflammatory cell infiltration ([1]; AA study, 3 alone, 5 mg/kg): 3.5 ± 0.34 | Pathological score (Mean ± SEM), Pannus growth ([1]; AA study, 3 alone, 5 mg/kg): 3.2 ± 0.53 | Pathological score (Mean ± SEM), Total ([1]; AA study, 3 alone, 5 mg/kg): 12.5 ± 1.78 | Antitumor effect (%) ([2]; FIG. 6, Oral, 5 mg/kg): 28.8% | Antitumor effect (%) ([2]; FIG. 6, Oral, 10 mg/kg): 20.1% | Antitumor effect (%) ([2]; FIG. 6, Oral, 30 mg/kg): 35.6% | Antitumor effect (%) ([2]; FIG. 7, Oral, 5 mg/kg): 15.9% | Antitumor effect (%) ([3]; FIG. 8, 28 days, 10 mg/kg): 22% | Antitumor effect (%) ([3]; FIG. 8, 28 days, 30 mg/kg): 30% | Antitumor effect (%) ([3]; FIG. 8, 28 days, 45 mg/kg): 32% | Antitumor effect (%) ([3]; FIG. 9, 18 days, 5 mg/kg): 4% | Antitumor effect (%) ([3]; FIG. 9, 18 days, 10 mg/kg): 7% | Antitumor effect (%) ([3]; FIG. 9, 18 days, 30 mg/kg): 23% | efficacy / tumor growth ([3]; WSU-DLCL2 mice model, FIGS. 8 and 9, triple combination at total 21 mg/kg/day): in line with the efficacy of Ibrutinib | difference in drug exposure between Day 1 and Day 28 ([4]; 28-day rat and dog studies): no significant difference | difference in drug exposure between male and female ([4]; 28-day rat and dog studies): no significant difference | AUC compared with ibrutinib ([4]; rats): significantly higher | Antitumor effect (%) ([5]; FIG. 2, 14 days, 10 mg/kg): 63% | Antitumor effect (%) ([5]; FIG. 2, 14 days, 30 mg/kg): 89% | Antitumor effect (%) ([5]; FIG. 3, 21 days, 5 mg/kg): 90% | Antitumor effect (%) ([5]; FIG. 3, 21 days, 10 mg/kg): 96% | Antitumor effect (%) ([5]; FIG. 4, 21 days, 10 mg/kg): 77% | Antitumor effect (%) ([5]; FIG. 12, 14 days, 5 mg/kg): 75% | AUC compared with ibrutinib [6]: significantly higher | Cmax ([6]; 15 mg/kg/day, Day 1, Female): 685 ± 212 ng/mL | effect on clinical score ([7]; CIA mice model, FIG. 15): absent | Pathological score (Mean ± SEM), Total ([7]; CIA study, 3 alone, 1.5 mg/kg QD): 3.90 ± 1.80 | Pathological score (Mean ± SEM), Bone resorption [7, 8]: 0.60 ± 0.13 | Pathological score (Mean ± SEM), Cartilage injury [7, 8]: 0.80 ± 0.47 | Pathological score (Mean ± SEM), Inflammatory cell infiltration [7, 8]: 1.00 ± 0.47 | Pathological score (Mean ± SEM), Pannus growth [7, 8]: 0.80 ± 0.47 | Pathological score (Mean ± SEM), Bone resorption [7, 9]: 0.10 ± 0.10 | Pathological score (Mean ± SEM), Cartilage injury [7, 9]: 0.20 ± 0.20 | Pathological score (Mean ± SEM), Inflammatory cell infiltration [7, 9]: 0.20 ± 0.20 | Pathological score (Mean ± SEM), Pannus growth [7, 9]: 0.20 ± 0.20 | Clinical Score (Mean) ([7]; CIA study, day 21, 3 alone, 1.5 mg/kg QD): 0.00 | Clinical Score (Mean) ([7]; CIA study, day 32, 3 alone, 1.5 mg/kg QD): 2.60 | Clinical Score (Mean) ([7]; CIA study, day 39, 3 alone, 1.5 mg/kg QD): 4.20*** | Clinical Score (Mean) ([7]; CIA study, day 42, 3 alone, 1.5 mg/kg QD): 4.00***

Reference: patent publication US10098900B2, “Pharmaceutical compositions and their use for treatment of cancer and autoimmune diseases” (ZHEJIANG DTRM BIOPHARMA CO. LTD., priority 2015, dated 2018)
